Data as given in patent publication US7858322B2, “Method of determining inhibition of binding to TRPM7 protein” (NoNo, Inc., priority 2003, dated 2010).
Residues, ends and D or L forms follow the SMILES beside them. No end group written: not given here. *: point of attachment. Biotin = O=C1N[C@H]2[C@H](CS[C@H]2CCCCC(=O)*)N1

Columns and labels:
INADL d3 [1] = molecular target: T1, INADL d3 (Homo sapiens, UniProt Q8NI35); experiment: G3 assay, binding of biotinylated peptide to GST-PDZ fusion; details: G3 titration
T1 construct: made in house; host or cells: E. coli (DH5α, BL21 or JM109)
T1 sequence (Q8NI35 with tags, fused parts or gaps): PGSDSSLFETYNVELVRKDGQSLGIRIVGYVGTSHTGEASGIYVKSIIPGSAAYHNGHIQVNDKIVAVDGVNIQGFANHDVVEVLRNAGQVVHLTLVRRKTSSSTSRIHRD
Protocol: (§1) The G3 assay is identical to the G0 assay with the following exceptions. The peptides are typically present at 0.1 μM rather than 20 μM. The peptides are also pre-incubated with the HRP-streptavidin prior to adding to the assay plate. In the G0 assay, free peptide is incubated with the PDZ proteins prior to the addition of the HRP-streptavidin. Thus, for the G0 assay one can lose signal if the bound peptide dissociates from the PDZ protein prior to the addition of the HRP-streptavidin. In the G3 modified assay the HRP-streptavidin/peptide complex is added to the plate in one step, thus increasing the likelihood that all the bound peptide will be bound to HRP-streptavidin. The G3 modified assay increases the chance of observing weak interaactions.
(§2) Reagents and Supplies • Nunc MaxiSorp 96 well Immuno-plate, Nunc • PBS pH 7.4 (phosphate buffered saline, 8 g NaCl, 0.29 g KCl, 1.44 g Na2HPO4, 0.24 g KH2PO4, add H2O to 1 liter and pH 7.4; 0.2 μm filter) • Assay Buffer: 2% BSA in PBS (20 g of bovine serum albumin per liter PBS, fraction V, ICN Biomedicals, cat#IC15142983 • Goat anti-GST polyclonal Ab, stock 5 mg/ml, stored at 4° C., Amersham Pharmacia cat#27-4577-01 • Dilute 1:1000 in PBS, final concentration 5 μg/ml. • HRP-Streptavidin, 2.5 mg/2 ml stock stored at 4° C., Zymed cat#43-4323, dilute 1:2000 into Assay buffer, final concentration of 0.5 μg/ml • Wash Buffer, PBS • Biotinylated peptides (HPLC purified, stock solution stored in −20° C. freezer) • GST-PRISM proteins (stock stored at −80° C., after 1st thaw store in −10° C. freezer) • TMB (3,3′,5,5′, teramethylbensidine), tablets, Sigma cat.#T5525 • Per plate, dissolve 1 tablet in 1 ml DMSO, add 9 ml Citrate/Phosphate buffer pH 5.4 and 2 μL H2O2 • 0.18M H2SO4, Sigma cat.#S 1526 • 12-w multichannel pipettor & tips • 50 ml reagent reservoirs, Costar#4870 • 50, 15 ml polypropylene conical tubes • Costar Transtar 96 Costar #7605 • Transtar 96 Cartridge Costar #7610 • Molecular Devices microplate reader (450 & 650 nm filters) with SoftMax Pro software • When using reagents stored at or 4° C. or −20° C., remove & keep on ice
(§3) Protocol • 1. Coat plate with 100 μl of 5 μg/ml anti-GST, overnight at 4° C. • 2. Dump contents of plate & out tap dry on paper towels • 3. Block with 200 μl Assay Buffer for 2 hrs at room temperature • 4. Prepare proteins at 5 μg/ml in Assay Buffer • 5. Wash 3× with cold PBS (4° C.), avoiding letting the plates dry out • 6. Add proteins at 50 μl per well, incubate 1 to 2 hrs at 4° C. • 7. Prepare peptides to desired concentration in Assay Buffer • 8. Wash 3× with cold PBS (4° C.), avoiding letting the plates dry out • 9. Add HRP-Streptavidin/peptide complex [prepared by incubating for 20 minutes at room temperature HRP-Streptavidin (1:2000) with the desired biotin-peptide concentration for 20 minutes at room temperature] at 50 μl per well on ice • 10. Place at room temperature for exactly 30 minutes • 11. Promptly wash 5× with PBS at room temperature • 12. Add 100 μl/well TMB substrate (write time on plate) • 13. Incubate in dark at room temperature for a maximum of 30 minutes • 14. Read plate at 25 minutes (650 nm), optional • 15. Stop reaction with 100 μl of 0.18 M H2SO4, 30 minutes after adding TMB Take last reading at 450 nm soon after stopping reaction
(§4) The G3 assay was performed using 0.1 μM peptide representing 11 amino acids of Tat fused to the final 9 amino acids of TRPM7 ([…]; SEQ ID NO:258).
(§5) The G3 assay was performed on a subset of the PDZ domains as in Example II except that the concentration of peptide was 0.002 μM, […], 0.1 μM, 0.2 μM, 1 μM, and 2 μM.
(§6) to calculate the EC50 for the binding of the peptides to the PDZ domains.
(§7) FIGS. 10A and 10B show graphs of the titrations for the Peptide #1829 with ZO-1 d2 and for the Peptide #1839 with INADL d3.

ZO-1 d2 [2] = molecular target: T2, ZO-1 d2 (Homo sapiens, UniProt Q07157, DEL264-264); experiment: as above; details: G3 titration
T2 construct: made in house; host or cells: E. coli (DH5α, BL21 or JM109)
T2 sequence (Q07157 with tags, fused parts or gaps DEL264-264): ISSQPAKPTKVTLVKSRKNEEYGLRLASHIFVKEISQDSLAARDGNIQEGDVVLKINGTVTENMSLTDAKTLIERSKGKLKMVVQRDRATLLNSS
Protocol: as §1, §2, §3, §4, §5, §6, §7

RIM2 d1 = molecular target: T3, RIM2 d1 (Homo sapiens, UniProt Q9UQ26); experiment: G assays, titrations or binding assays of peptides; details: peptide demonstrated to bind RIM2 d1 in G assays
T3 construct: made in house; host or cells: E. coli (DH5α, BL21 or JM109)
T3 sequence (Q9UQ26 632-757): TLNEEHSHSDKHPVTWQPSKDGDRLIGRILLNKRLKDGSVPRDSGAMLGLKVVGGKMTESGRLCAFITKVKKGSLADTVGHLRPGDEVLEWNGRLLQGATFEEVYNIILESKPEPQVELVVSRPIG
Protocol: (§8) In one aspect, the invention provides an assay in which a GST/PDZ fusion protein is immobilized on a surface (G assay). […] In a preferred embodiment, the assay is carried out as follows:
(§9) (1) A PDZ-domain polypeptide is bound to a surface, e.g. a protein binding surface. In a preferred embodiment, a GST/PDZ fusion protein containing one or more PDZ domains is bound to a polystyrene 96-well plate. […] In one embodiment, the GST/PDZ fusion protein is bound via an anti-GST antibody that is coated onto the 96-well plate. Adequate binding to the plate can be achieved when: • a. 100 μl per well of 5 μg/ml goat anti-GST polyclonal antibody (Pierce) in PBS is added to a polystyrene 96-well plate (e.g., Nunc Polysorp) at 4° C. for 12 hours. • b. The plate is blocked by addition of 200 μl per well of PBS/BSA for 2 hours at 4° C. • c. The plate is washed 3 times with PBS. • d. 50 μl per well of 5 μg/ml GST/PDZ fusion protein) or, as a negative control, GST polypeptide alone (i.e. not a fusion protein) in PBS/BSA is added to the plate for 2 hours at 4° C. • e. the plate is again washed 3 times with PBS.
(§10) (2) Biotinylated PL peptides are allowed to react with the surface by addition of 50 μl per well of 20 μM solution of the biotinylated peptide in PBS/BSA for 10 minutes at 4° C., followed by an additional 20 minute incubation at 25° C. The plate is washed 3 times with ice cold PBS.
(§11) (3) The binding of the biotinylated peptide to the GST/PDZ fusion protein surface can be detected using a variety of methods and detectors known to one of skill in the art. In one embodiment, 100 μl per well of 0.5 μg/ml streptavidin-horseradish peroxidase (HRP) conjugate dissolved in BSA/PBS is added and allowed to react for 20 minutes at 4° C. The plate is then washed 5 times with 50 mM Tris pH 8.0 containing 0.2% Tween 20, and developed by addition of 100 μl per well of HRP-substrate solution (TMB, Dako) for 20 minutes at room temperature (RT). The reaction of the HRP and its substrate is terminated by addition of 100 μl per well of 1 M sulfuric acid, and the optical density (O.D.) of each well of the plate is read at 450 um.
(§12) (4) Specific binding of a PL peptide and a PDZ domain polypeptide is determined by comparing the signal from the well(s) in which the PL peptide and PDZ domain polypeptide are combined, with the background signal(s). […] Typically a specific or selective reaction will be at least twice background signal, more typically more than 5 times background, and most typically 10 or more times the background signal. […] Correspondingly, a statistical test (e.g. a T-test) comparing repeated measurements of the signal with repeated measurements of the background will result in a p-value <0.05, more typically a p-value <0.01, and most typically a p-value <0.001 or less. As noted, in an embodiment of the G assay, the signal from binding of a given PL peptide to immobilized (surface bound) GST polypeptide alone is one suitable negative control (sometimes referred to as B1). Because all measurement are done in multiples (i.e. at least duplicate) the arithmetic mean (or, equivalently, average.) of several measurements is used in determining the binding, and the standard error of the mean is used in determining the probable error in the measurement of the binding. The standard error of the mean of N measurements equals the square root of the following: the sum of the squares of the difference between each measurement and the mean, divided by the product of (N) and (N−1). Thus, in one embodiment, specific binding of the PDZ protein to the platebound peptide is determined by comparing the mean signal (“mean S”) and standard error of the signal (“SE”) for a particular PL-PDZ combination with the mean B1.

ZO-1 d2 [3] = molecular target: T2, ZO-1 d2; experiment: G assays, titrations or binding assays of peptides; details: peptide demonstrated to bind ZO-1 d2 in G assays
Protocol: as §8, §9, §10, §11, §12

INADL d3 [4] = molecular target: T1, INADL d3; experiment: G assays, titrations or binding assays of peptides; details: peptide demonstrated to bind INADL d3 in G assays
Protocol: as §8, §9, §10, §11, §12

[5] = tested on: cultured cortical neurons; experiment: Oxygen glucose deprivation (OGD) neuronal cell death; type: cell-based; details: FIG. 7
Protocol: The fraction of dead cells was determining by dividing the number of neurons expressing GFP which became stained with propidium iodide 20 h after OGD by the number of neurons expressing GFP at the beginning of the experiment. Data for each culture was obtained from counting cells in 3 high power microscope fields per experiment.

Row | Compound | ODmax (450 nm) (INADL d3 [1]) | ODmax (450 nm) (ZO-1 d2 [2]) | POZ domain bound (RIM2 d1) | POZ domain bound (ZO-1 d2 [3]) | POZ domain bound (INADL d3 [4]) | Survival of neurons in prolonged OGD [5]
1 | CC(C)[C@H](NC(=O)[C@H](Cc1ccc(O)cc1)NC(=O)[C@H](Cc1ccc(O)cc1)NC(=O)[C@H](CCC(=O)O)NC(=O)[C@H](CCCCN)NC(=O)[C@H](CC(=O)O)NC(=O)[C@H](CCCCN)NC(=O)[C@H](CC(N)=O)NC(=O)[C@H](CCCCN)NC(=O)[C@H](CCCNC(=N)N)NC(=O)[C@H](CCCNC(=N)N)NC(=O)[C@H](CCCNC(=N)N)NC(=O)[C@H](CCC(N)=O)NC(=O)[C@H](CCCNC(=N)N)NC(=O)[C@H](CCCNC(=N)N)NC(=O)[C@H](CCCCN)NC(=O)[C@H](CCCCN)NC(=O)[C@H](CCCNC(=N)N)NC(=O)CNC(=O)[C@H](Cc1ccc(O)cc1)NC(=O)CCCC[C@@H]1SC[C@@H]2NC(=O)N[C@@H]21)C(=O)O [Peptide 1852] (Biotin-YGRKKRRQRRRKNKDKEYYV-OH; C-terminus assumed) | 2.40 | 2.60 | RIM2 D1 | ZO-1 D2 | – | –
2 | CC[C@H](C)[C@H](NC(=O)[C@@H](NC(=O)[C@H](CCCNC(=N)N)NC(=O)[C@H](CC(=O)O)NC(=O)[C@H](CO)NC(=O)[C@H](CCCNC(=N)N)NC(=O)[C@H](C)NC(=O)[C@H](CCCNC(=N)N)NC(=O)[C@H](CCCNC(=N)N)NC(=O)[C@H](CCCNC(=N)N)NC(=O)[C@H](CCC(N)=O)NC(=O)[C@H](CCCNC(=N)N)NC(=O)[C@H](CCCNC(=N)N)NC(=O)[C@H](CCCCN)NC(=O)[C@H](CCCCN)NC(=O)[C@H](CCCNC(=N)N)NC(=O)CNC(=O)[C@H](Cc1ccc(O)cc1)NC(=O)CCCC[C@@H]1SC[C@@H]2NC(=O)N[C@@H]21)[C@@H](C)O)C(=O)N[C@@H](Cc1c[nH]c2ccccc12)C(=O)N[C@@H](C)C(=O)O [Peptide 1829] (Biotin-YGRKKRRQRRRARSDRTIWA-OH; C-terminus assumed) | 1.40 | 2.90 | RIM2 D1 | ZO-1 D2 | INADL D3 | –
3 | [Gd+3] [Gd^3+] | – | – | – | – | – | can permit survival of neurons destined to die from prolonged OGD
4 | Biotin-YGRKKRRQRRRSRTDRLEYV [Peptide 1846] | 1.50 | – | RIM2 D1 | – | – | –
5 | C[C@H](NC(=O)[C@H](Cc1c[nH]c2ccccc12)NC(=O)[C@H](Cc1ccc(O)cc1)NC(=O)[C@H](CCCCN)NC(=O)[C@H](CCCNC(=N)N)NC(=O)[C@H](CC(=O)O)NC(=O)[C@@H](NC(=O)[C@H](CCCNC(=N)N)NC(=O)[C@H](CO)NC(=O)[C@H](CCCNC(=N)N)NC(=O)[C@H](CCCNC(=N)N)NC(=O)[C@H](CCCNC(=N)N)NC(=O)[C@H](CCC(N)=O)NC(=O)[C@H](CCCNC(=N)N)NC(=O)[C@H](CCCNC(=N)N)NC(=O)[C@H](CCCCN)NC(=O)[C@H](CCCCN)NC(=O)[C@H](CCCNC(=N)N)NC(=O)CNC(=O)[C@H](Cc1ccc(O)cc1)NC(=O)CCCC[C@@H]1SC[C@@H]2NC(=O)N[C@@H]21)[C@@H](C)O)C(=O)O [Peptide 1832] (Biotin-YGRKKRRQRRRSRTDRKYWA-OH; C-terminus assumed) | 0.60 | 2.10 | RIM2 D1 | ZO-1 D2 | INADL D3 | –
6 | CC[C@H](C)[C@H](NC(=O)[C@H](CCC(N)=O)NC(=O)[C@H](Cc1ccc(O)cc1)NC(=O)[C@H](CCCCN)NC(=O)[C@H](CCCNC(=N)N)NC(=O)[C@H](CC(=O)O)NC(=O)[C@@H](NC(=O)[C@H](CCCNC(=N)N)NC(=O)[C@H](CO)NC(=O)[C@H](CCCNC(=N)N)NC(=O)[C@H](CCCNC(=N)N)NC(=O)[C@H](CCCNC(=N)N)NC(=O)[C@H](CCC(N)=O)NC(=O)[C@H](CCCNC(=N)N)NC(=O)[C@H](CCCNC(=N)N)NC(=O)[C@H](CCCCN)NC(=O)[C@H](CCCCN)NC(=O)[C@H](CCCNC(=N)N)NC(=O)CNC(=O)[C@H](Cc1ccc(O)cc1)NC(=O)CCCC[C@@H]1SC[C@@H]2NC(=O)N[C@@H]21)[C@@H](C)O)C(=O)O [Peptide 1839] (Biotin-YGRKKRRQRRRSRTDRKYQI-OH; C-terminus assumed) | 1.60 | 2.50 | RIM2 D1 | – | INADL D3 | –
7 | CC[C@H](C)[C@H](NC(=O)[C@H](CC(C)C)NC(=O)[C@H](CCCNC(=N)N)NC(=O)[C@H](CCCNC(=N)N)NC(=O)[C@H](CCC(=O)O)NC(=O)[C@H](CC(=O)O)NC(=O)[C@H](CCC(N)=O)NC(=O)[C@H](CCCNC(=N)N)NC(=O)[C@H](CCCNC(=N)N)NC(=O)[C@H](CCCNC(=N)N)NC(=O)[C@H](CCC(N)=O)NC(=O)[C@H](CCCNC(=N)N)NC(=O)[C@H](CCCNC(=N)N)NC(=O)[C@H](CCCCN)NC(=O)[C@H](CCCCN)NC(=O)[C@H](CCCNC(=N)N)NC(=O)CNC(=O)[C@H](Cc1ccc(O)cc1)NC(=O)CCCC[C@@H]1SC[C@@H]2NC(=O)N[C@@H]21)C(=O)N[C@H](C(=O)N[C@@H](CC(C)C)C(=O)O)C(C)C [Peptide 1842] (Biotin-YGRKKRRQRRRQDERRLIVL-OH) | 1.90 | 2.30 | RIM2 D1 | ZO-1 D2 | – | –
8 | CC(C)C[C@H](NC(=O)[C@H](CO)NC(=O)[C@@H](NC(=O)[C@H](CC(C)C)NC(=O)[C@H](CCCNC(=N)N)NC(=O)[C@H](CC(=O)O)NC(=O)CNC(=O)[C@H](CCCNC(=N)N)NC(=O)[C@H](C)NC(=O)[C@H](CCCNC(=N)N)NC(=O)[C@H](CCCNC(=N)N)NC(=O)[C@H](CCCNC(=N)N)NC(=O)[C@H](CCC(N)=O)NC(=O)[C@H](CCCNC(=N)N)NC(=O)[C@H](CCCNC(=N)N)NC(=O)[C@H](CCCCN)NC(=O)[C@H](CCCCN)NC(=O)[C@H](CCCNC(=N)N)NC(=O)CNC(=O)[C@H](Cc1ccc(O)cc1)NC(=O)CCCC[C@@H]1SC[C@@H]2NC(=O)N[C@@H]21)C(C)C)C(=O)O [Peptide 1843] (Biotin-YGRKKRRQRRRARGDRLVSL-OH; C-terminus assumed) | 1.20 | 2.20 | RIM2 D1 | ZO-1 D2 | – | –
